Measured values as given in patent publication US20250362286A1, “SCREENING MODELS AND METHODS OF CANCER TREATMENT” (The Regents of the University of California, priority 2022, published 2025).
Entries after “also recorded” stand apart in the source; their conditions may differ.

What was measured:
PIM-025 PDOs [1] = experiment: western blot of E-Cadherin and Vimentin in PDOs; format: cell-based; conditions: 6 days
Description: (§1) FIG. 8N depicts a western blot analysis of E-Cadherin and Vimentin in PIM-025 PDOs treated with vehicle or ISX9 for 6 days. FIG. 8O depicts a western blot analysis of E-Cadherin and Vimentin in PA-14-13 PDOs treated with vehicle or ISX9 for 6 days.

PA-14-13 PDOs [2] = experiment: western blot of E-Cadherin and Vimentin in PDOs; format: cell-based; conditions: 6 days
Description: as §1

[3] = cited from earlier work
Notch1 = experiment: immunofluorescence staining of cleaved intracellular domain of Notch1 in MDAs; format: cell-based; conditions: vs vehicle, even in 2D culture
Description: FIG. 3B depicts immunofluorescence staining of cell nuclei and cleaved intracellular domain of Notch1 in vehicle and Isx9 treated MDAs.

PIM-025 PDOs [4] = experiment: FACS analysis of CD44+/CD24- CSCs and CDH1+ cells in PDOs; format: cell-based
Description: These figures depict flow cytometry analysis of CD44*/CD24 CSC in (FIG. 8F and FIG. 8G) PIM025 PDOs and (FIG. 8H and FIG. 8I) PA-14-13 PDOs treated with vehicle or ISX9.
FIG. 8J and FIG. 8K depict a flow cytometry analysis of CDH1^+ cells in PIM025 PDOs treated with vehicle or ISX9. FIG. 8L and FIG. 8M depict a flow cytometry analysis of CDH1^+ cells in PA-14-13 PDOs treated with vehicle or ISX9.

MDAs [5] = experiment: chemo-susceptibility to doxorubicin after pre-treatment, MTS assay; format: cell-based; conditions: 7d pre-treatment in HD Col1, then chemotherapy 3d; normalized to vehicle control
Protocol: To determine whether ISX9 could be used in a similar therapeutic function, MDAs and R40P cells were treated with vehicle or ISX9 for 7d in HD Col1, followed by chemotherapy for 3d and MTS assay to quantify viable cells.

[6] = once daily 16 mg/kg ip for several weeks, cited from earlier work
LL/2 lung cancer cells = experiment: western blot of EMT transcription factor TWIST1; format: cell-based; conditions: HD Col1, 7 days
Description: FIG. 4E depicts a western blot analysis of EMT transcription factor TWIST1 in LL/2 lung cancer cells treated with vehicle or ISX9 for 7 days in 2D TC or HD Col1.

PIM-025 PDOs [7] = experiment: sensitivity of PDOs to doxorubicin after pre-treatment; format: cell-based; conditions: pre-treatment 5d, then doxorubicin 3d
Protocol: (§2) To determine if these effects would translate to increased sensitivity to chemotherapy, both sets of PDOs were treated with ISX9 for 5d, followed by doxorubicin for 3d. […] FIG. 8P and FIG. 8Q depicts results of tests showing that PIM-025 PDOs and PA-14-13 PDOs, respectively, pre-treated with ISX9 acquire increased sensitivity to doxorubicin.

PA-14-13 PDOs [8] = experiment: as above; format: cell-based; conditions: pre-treatment 5d, then doxorubicin 3d
Protocol: as §2

MDAs [9] = experiment: RT-qPCR of CD24 expression in MDAs, 7 days; format: cell-based; conditions: after 7 days, population level
Description: (§3) To further assess differentiation status, RT-PCR and flow cytometry (FC) was used to quantify expression of the CSC stemness biomarker signature CD44^+/CD24^− in MDAs. At the population level, MDAs increased CD24 mRNA expression ˜14-fold with ISX9 treatment after 7 days (FIG. 3E). FIG. 3E depicts RT-qPCR of CD24 expression in MD As treated with vehicle or ISX9. […] (FIG. 3F, FIG. 3G). FIG. 3F and FIG. 3G depicts flow cytometry analysis of MDAs treated with vehicle or ISX9.

MDAs [10] = experiment: western blot of EMT markers E-cadherin and Vimentin; format: cell-based
Description: Given the strong phenotypic changes induced by ISX9 in HD Col1 (FIG. 2), this example also assessed the differentiation activity of ISX9 by characterizing Epithelial-to-Mesenchymal (EMT) status using western blot (WB) analysis of E-cadherin and vimentin levels. […] FIG. 3D depicts WB of EMT markers E-cadherin and Vimentin in cancer cell lines treated with vehicle or ISX9.
To understand whether ISX9 treatment could induce Mesenchymal-to-Epithelial Transition (MET), western blotting (WB) was performed for the epithelial marker E-Cadherin (CDH1) and the Mesenchymal marker Vimentin (Vim) on 2D and HD Collagen-treated tumor cells (FIG. 4D). FIG. 4D depicts a western blot analysis of EMT markers E-cadherin and Vimentin in MDAs treated with vehicle or ISX9 for 7 days in 2D TC or HD Col1.

MDAs [11] = experiment: CellTiter-Fluor metabolic activity assay; format: cell-based; conditions: 2D, 10-40 μM
Description: (§4) FIG. 7C depicts the metabolic activity, cytotoxicity, and relative CD24 expression dose-response to ISX9.

MDAs [12] = experiment: CytoTox-Fluor cytotoxicity assay; format: cell-based; conditions: 2D, 1-40 μM
Description: as §4

MDA-MB-231 cells = experiment: western blot of acetylation of histones H3 and H4; format: cell-based; conditions: 2D- and 3D-treated cells, 24 hours
Description: (§5) Also identified was the fact that a similar increase in acetylation was found in patient-derived organoid models. […] Acetylation and deactylation of histones H3 and H4 are typically orchestrated by Histone Acetyltransferases (HATs), including the several HAT subfamilies, as well as HDACs (see, e.g., Marmorstein, R. et al. Cold Spring Harb. Perspect. Biol. 6, a018762 (2014)). Not wishing to be bound by any particular theory, Isx9 may bind directly to HATs and/or HDACs in order to activate histone acetylation and drive induction of MET and/or CSC differentiation.

PA-14-13 = experiment: western blot of acetylated H3/H4 in PDOs; format: cell-based; conditions: patient-derived organoid model
Description: as §5

PIM025 = experiment: western blot of acetylated H3/H4 in PDOs; format: cell-based; conditions: patient-derived organoid model
Description: as §5

MDAs [13] = experiment: flow cytometry of CD44+/CD24- CSC population in MDAs; format: cell-based
Description: as §3
Cells in 2D tissue culture and HD Collagen I were treated with ISX9 daily for 7 days, dissociated and flow-sorted. […] These figures depict fluorescence profiles of CD44/CD24 in MDAs treated with vehicle or ISX9 for 7 days in (FIG. 4A) 2D TC or (FIG. 4B) HD Col1. FIG. 4C depicts a flow cytometry analysis of CD44^+/CD24^− MDA cells treated with vehicle or ISX9.

Structure (SMILES): O=C(NC1CC1)c1cc(-c2cccs2)on1 [ISX9, Isoxazole 9]
- Vimentin expression (WB) (PIM-025 PDOs [1]): no observed differences to Vimentin expression
- Vimentin expression (WB) (PA-14-13 PDOs [2]): no observed differences to Vimentin expression
- detection in heart tissue ([3]; ip injection): detected
- terminal half-life in plasma ([3]; single bolus ip injection): < 15 min
- localization of activated Notch1 (cleaved intracellular domain) (Notch1): strong nucleolar localization
- CD44+/CD24- CSCs (FACS) (PIM-025 PDOs [4]; after 6 days of treatment): reduction in CD44+/CD24− CSCs
- CDH1+ cells (FACS) (PIM-025 PDOs [4]; vs vehicle): slight reduction in CDH1^+ cells
- decrease in IC50 to doxorubicin (MDAs [5]): ~14.5 fold
- tolerability (signs or symptoms) ([6]; 16 mg/kg): well-tolerated; also recorded: no signs or symptoms of lethargy, weight loss or decreased appetite
- serum biochemistry and hematology profiles [6]: normal
- TWIST1 protein expression (WB) (LL/2 lung cancer cells): reduced TWIST1 protein expression
- increase in sensitivity to doxorubicin (PIM-025 PDOs [7]): 2.9 fold
- increase in sensitivity to doxorubicin (PA-14-13 PDOs [8]): 85.8 fold
- increase of CD24 mRNA expression (MDAs [9]): ~14 fold
- effect on MET markers E-Cadherin and Vimentin (WB) (MDAs [10]; 2D-treated cells, 7 days): no effect on either MET marker
- E-cadherin expression (WB) (MDAs [10]; 7 days in HD Col1): increased E-cadherin expression; also recorded: increase in E-Cadherin
- Vimentin expression (WB) (MDAs [10]; 7 days in HD Col1): reduced Vimentin expression; also recorded: decrease in Vimentin
- metabolic activity (MDAs [11]): decrease in metabolic activity
- cytotoxicity (MDAs [12]): without any observable increase in cytotoxicity
- acetylation of histones H3 and H4 (MDA-MB-231 cells): significant increase in acetylation of histones H3 and H4
- acetylated H3/H4 expression (PA-14-13): large increase in acetylated H3/H4 expression
- acetylated H3/H4 expression (PIM025): slight increase in acetylated H3/H4 expression
- population of CD44+/CD24- CSCs (MDAs [13]; 2D and HD Collagen I, treated daily for 7 days): reducing the population of CD44^+/CD24^− CSCs to a similar degree
- CD44+/CD24- cells, share of the population (MDAs [13]; with treatment, vehicle ˜100%): ~67%
